Results on 1 substance are retold here after patent publication US9155784B2, “Anti-TNF-α therapy for the mucopolysaccharidoses and other lysosomal disorders” (Icahn School of Medicine at Mount Sinai, priority 2011, dated 2015).

Assay type in all cases: in vivo, rat
The subject of one experiment is TNF-α. In words: TNF-α immunostaining of articular cartilage, MPS VI rats. The following applies: MPS VI rats treated 8 months, vs untreated. As to the method: (§1) Femora from 37-week-old normal, untreated MPS VI and treated MPS VI rats were fixed, embedded, sectioned, and stained with toluidine blue and H & E. Immunohistochemical studies were performed as well. For immunohistochemistry, sections were fixed with 4% paraformaldehyde/PBS, permeabilized with 0.5% Triton-X-100, blocked, and incubated overnight at 4° C. with primary rabbit polyclonal anti-mouse collagen type IIA1 (rabbit polyclonal […], Santa Cruz Biotechnology) and TNF-α antibody (goat polyclonal sc-1348, Santa Cruz Biotechnology). After several rinses with PBS, visualization was accomplished using a fluorescent secondary antibody, donkey anti-goat IgG-Cy-3 (711-165-152, Jackson Laboratory). Nuclei were stained with 1 mg/ml bis-benzimide Hoechst dye (Sigma-Aldrich) for 10 min, rinsed, and sections were mounted with an anti-bleaching mounting media. Slides were visualized and photographed with a confocal laser-scanning microscope (Carl Zeiss 510 Meta).

The test system of experiment [1] is MPS VI rats. In words: Synovium / knee joint histology, MPS VI rats. Conditions: MPS VI rats treated 8 months, knee cross sections. On the procedure:
as §1
FIG. 1A summarizes the serum levels of TNF-α and RANKL at the end of the study. Both inflammatory markers were highly elevated in untreated MPS VI rats as compared to normal animals, and both treatment protocols led to significant reductions. […] The synovial membranes (*) were hyperplastic in untreated MPS VI rats, leading to the formation of synovial villi (SV). […]

Experiment [2] has as its system MPS VI rats. In words: Accelerating rotarod (locomotor function), MPS VI rats, ERT and combined treatment. The following applies: 10 RPM, maximum time 180 seconds; untreated MPS VI mean 70 seconds. The source says: Age-matched 37-week-old normal and untreated MPS VI and treated MPS VI rats were placed on an accelerating Rotarod series 8 (IITC Life Science) for evaluation as described previously (Cotugno et al., “Different Serum Enzyme Levels are Required to Rescue the Various Systemic Features of the Mucopolysaccharidoses,” Hum. Gene Ther. 21:555-69 (2010), which is hereby incorporated by reference in its entirety). Animals were primed on the rod for two consecutive days prior to the actual recording. The rotarod was set at increasing speeds from 10 to 30 rpm over 3 minutes, and an average of the latency to fall off from the rod was recorded. Results were analyzed by one-way analysis of variance (ANOVA) with the variable group.

The subject of experiment [3] is MPS VI rats. Nature of the experiment: Femora and tibia length by microCT / caliper, MPS VI rats. Conditions: 37 weeks of age, vs untreated MPS VI. On the procedure: Three-dimensional images of the 37-week-old femora from age-matched normal, untreated and treated MPS VI rats were obtained using the eXplore Locus SP PreClinical Specimen microCT system (GE Healthcare; London, Ontario, Canada). Scans were performed at a voxel size of 14.4 μm. The scan protocol consisted of 3600 image acquisitions over a five hour scan (acquisition parameters: 80 kVp, 80 uA, 3 second exposure time [˜690], 0.010″ aluminum beam filter). A calibration phantom containing air, water, and hydroxyapatite (SB3: Gamex RMI, Middleton, Wis., USA) was included in all scans to adjust for the variability in X-ray attenuation inherent to independent scan sessions.
Limb and trachea measurements were taken at the end of the study (37 weeks of age). The length of each femur was measured from the microCT images using the Microview software. The greater trochanter was used as the proximal margin of the femur, whereas the extent of the distal condyles was considered the distal margin. Thus, the length of each femur was computed roughly along the vertical axis of the bone. For validation, the physical femora and tibia lengths, as well as the width of the tracheas, was measured with a digital caliper. The mean of the two treatment groups (ERT and combined ERT/CNTO1081) were compared using standard student t test analysis.

The next experiment deals with ceramide. In words: Trachea ceramide immunohistochemistry, MPS VI rats. Conditions: 37 weeks of age. As to the method: Tracheas from 37-week-old normal, untreated MPS VI and treated MPS VI rats were fixed, embedded, sectioned, and prepared as described above. Sections were incubated overnight with primary mouse monoclonal anti-ceramide antibody (MID 15B4, Alexis Corporation) and visualization was accomplished using a fluorescent secondary antibody, donkey anti-goat IgG-Cy-3 (711-165-152, Jackson Laboratory). Slides were visualized and photographed with a confocal laser-scanning microscope (Carl Zeiss 510 Meta).

Another experiment concerns articular chondrocytes. In words: Immunoblot of articular chondrocytes from treated MPS VI rats. The following applies: western blot, vs untreated MPS VI. The source says: Tracheas, femora, and tibias were collected from the control and treated MPS VI rats, and placed in either phosphate buffered saline for the isolation of fibroblast-like synoviocytes (FLS) and articular chondrocytes, or fixed in neutral buffered 10% formalin (Sigma Chemical) for histology, microCT analysis, and immunohistochemistry (see infra). The fixed bones were decalcified in 8% formic acid (Sigma Chemical) for 5 days, paraffin embedded, and sectioned (5 μm) for subsequent staining Primary FLS and articular chondrocyte cultures were established as previously described (Simonaro et al., “Joint and Bone Disease in Mucopolysaccharidosis VI and VII: Identification of New Therapeutic Targets and Biomarkers Using Animal Models,” Pediatr. Res. 57:701-707 (2005); Simonaro et al., “Mechanism of Glycosaminoglycan-Mediated Bone & Joint Disease: Implications for the Mucopolysaccharidoses & Other Connective Tissue Diseases,” Amer. J. Path. 172:112-122 (2008), both of which are hereby incorporated by reference in their entirety), and expression of inflammatory and apoptosis markers were assessed by western blotting.
Articular chondrocytes from 37-week-old normal, untreated and treated MPS VI rats were collected using sequential enzyme digestion of cartilage, pelleted and lysed for immunoblot analysis as previously described (Simonaro et al., “Mechanism of Glycosaminoglycan-Mediated Bone & Joint Disease: Implications for the Mucopolysaccharidoses & Other Connective Tissue Diseases,” Amer. J. Path. 172:112-122 (2008), which is hereby incorporated by reference in its entirety). The membranes were incubated with rabbit polyclonal anti-collagen type IIA1 (sc-8784-R, Santa Cruz Biotechnology), rabbit polyclonal anti-collagen type X (AB58632, Abcam), rabbit polyclonal anti-ADAMTS5 (sc-28887, Santa Cruz Biotechnology), rabbit polyclonal anti-PARP (sc-7150, Santa Cruz Biotechnology), and rabbit polyclonal anti-GAPDH (sc-25778, Santa Cruz Biotechnology), as a loading control. The bound antibodies were recognized by secondary antibodies conjugated to HRP (NA934V), GE Healthcare). […]
(Immunoblotting shows a protein as a band on a membrane.)

Turning to “recombinant human N-acetylgalactosamine-4-sulfatase [ERT]”, the “TNF-α immunostaining in the articular cartilage” value with TNF-α is on record as “modestly reduced”. In addition, the “synovial inflammation and formation of villi” value in the experiment on MPS VI rats [1] is given as “did not reduce”. The “time on the rotating bar” value with MPS VI rats [2] came out at 180 s. Also, in the experiment with MPS VI rats [3], the “increase in femora length” value is given as “No improvements were observed” and the “increase in tibia length” value is reported as “No improvement was observed”. Further, the “ceramide staining in tracheal epithelial cells” value in the experiment with ceramide is on record as “strong ceramide staining”. In the experiment with articular chondrocytes, the “ADAMTS5 expression in articular chondrocytes” value is recorded as “reduced”, the “PARP (apoptosis marker) expression in articular chondrocytes” value was “only reduced by the combined treatment protocol” and the “collagen X expression in articular chondrocytes” value is “increased”.
